Patent US20210253511A1, “COMPOUNDS AND USES FOR THE TREATMENT AND PREVENTION OF DISEASES AND CONDITIONS ASSOCIATE WITH OR AGGREVATED BY IMPARED MITOPHAGY” (Yissum Research Development Company of The Hebrew …, priority 2018, published 2021)
Entries after “also recorded” stand apart in the source; their conditions may differ.

Key:
[1] = tested on: dct-1(tm376) mutants / dct-1 RNAi worms; experiment: Paraquat survival assay in dct-1 deletion mutant or RNAi knockdown worms; format: in vivo, C. elegans
Description: FIGS. 9A-9D show the protective activity of 1,8-Diaminooctane is mitophagy-dependent. (FIG. 9A) is a schematic illustration of the mitophagy pathway in C. elegans. Survival curves presenting the effect of dct-1 and pink-1 deletion mutations (FIG. 9B, FIG. 9C) or RNAi knockdowns (FIG. 9D) on worms' viability in 200 mM PQ at indicated time points. Statistical analysis on PQ survival curves were performed using the log-rank (Mantel-Cox) test with Prism 7 software. The plots represent the average of six independent experiments. The minimum number of worms examined for each experimental condition is 133.
In the first one, the effect of 1,8-Diaminooctane on the survival of dct-1 and pink-1 mutants in PQ was investigated. DCT-1 is an orthologue of the mammalian NIX/BNIP3L and BNIP3 that act as mitophagy receptors, and PINK-1 is a mitochondrial phosphatase and tensin (PTEN)-induced kinase 1 which has a critical function in mitophagy (see K. Palikaras, E. Lionaki, N. Tavernarakis, Coordination of mitophagy and mitochondrial biogenesis during ageing in C. elegans, Nature 521 (7553) (2015) 525-8; and FIG. 3A). It was hypothesized that if mitophagy is essential for the protective effect of 1,8-Diaminooctane, then dct-1 and pink-1 mutants will become sensitive to PQ following treatment. […] The second experiment that was performed was an RNAi experiment. Here, dct-1 and pink-1 were selectively knocked down using RNAi. The RNAi results recapitulated the one of the mutant experiments ([…]). […] Importantly, the RNAi phenotype was less strong compared to the one observed with the deletion mutants. […] The difference between the results could be due to incomplete suppression of dct-1 and pink-1 in the RNAi treated worms. Together, our results verify that 1,8-Diaminooctane protects against oxidative stress by activating mitophagy.

C. elegans = experiment: Off-food speed measurements; format: in vivo; settings: 4 mM, aged worms, untreated worms declined significantly
Description: Bar graphs presenting the speed of 3 and 11 days post L1 wild-type worms that were treated with 4 mM 1,8-Diaminooctane or with vehicle as a control. The measurements of speed were performed in the absence of food (n=6 assays performed over at least 3 days). Asterisks indicate significance for comparisons with control worms (day 11). **p<0.01, two-way ANOVA with Bonferroni post-test. NS, Not significant. Error bars indicate SEM.
For speed-imaging experiments, low-peptone NGM agar plates were used. These plates were prepared as described above apart from the of Bacto peptone concentration that was decreased to 0.13 g/L and the use of 60 mm petri dished (instead of 35 mm dishes). […] In brief, eight synchronized worms (age 3 or 11 post-L1) were put (for 30 min) in a drop of M9 buffer to clean them from external and internal bacteria. During the 30 min the M9 buffer was replaced twice. After 30 min, the worms were placed at the center of a 17 mm diameter copper ring on an unseeded low-peptone plate. Recording was started after 5 min acclimation time. The worms were recorded for 10 min at 0.5 frames/s, using a Q-Imaging MicroPublisher 5.0 RTV Microscope Camera mounted onto an Olympus SZ61 stereo microscope. A custom-written MATLAB software was used to analyze the speed. For each treatment, at least 48 animals in 6 independent assays were measured.

[2] = tested on: C. elegans worms in 200 mM paraquat (PQ); experiment: Paraquat survival assay; format: in vivo; settings: 200 mM PQ
Description: C. elegans strains were grown at 21° C. on nematode growth media (NGM) agar plates containing diamines or vehicle as a control. The NGM agar plates were prepared as described in L. Livshits, E. Gross, A method for measuring sulfide toxicity in the nematode Caenorhabditis elegans, MethodsX 4 (2017) 250-255. A suspension of 3 g sodium chloride (NaCl), 20 g Bacto agar, and 2.5 g of Bacto peptone in 1 L of double distilled water (DDW) was mixed and autoclaved. Then, the medium was cooled to 55° C. and supplemented with 1 ml of 100 mM CaCl2), 1 ml of 100 mM MgSO4, 25 ml of 1 M potassium phosphate buffer pH 6, and 1 ml of 5 mg/ml cholesterol (the cholesterol was dissolved in ethanol). Diamines or DDW (vehicle) were added to the NGM-agar solution. For RNAi NGM-agar plates, Isopropyl β-D-1-thiogalactopyranoside (IPTG) and ampicillin were added to a final concentration of 1 mM and 100 μg/ml, respectively. The NGM-agar solution was thoroughly vortex mixed and immediately poured into 35 mm petri dish (4 ml per plate). NGM-plates were covered with aluminum foil and dried for 24 h at room temperature (RT). 24 h before the experiment, plates were seeded with 100 μl bacteria (OD600=0.6, OP50 or HT115(DE3)). The seeded plates were covered with aluminum foil and dried for 24 h at RT.
To get synchronized C. elegans larvae, the method described in W. B. Wood, The Nematode Caenorhabditis Elegans, Cold Spring Harbor Laboratory 1988, was performed. In brief, hypochlorite/NaOH solution was made by mixing 1 ml of 5% solution of sodium hypochlorite, 800 μl of 2.5 N NaOH and 2.2 ml DDW to final concentrations of 0.5 N NaOH and 1.25% sodium hypochlorite. M9 buffer was made by dissolving 3 g KH2PO4, 6 g Na2HPO4, 5 g NaCl and 1 ml of MgSO4 from 1M stock in 1 litter of DDW. The solution pH was adjusted to 7 and sterilizes by filtration (with a 0.2 µm filter bottle). Gravid hermaphrodites was washed from the NGM plates into a 15 ml tube with M9 buffer and centrifuged for 2 min at 900×g, RT. Liquid was removed until 2 ml worms' suspension was left and added 2 ml of hypochlorite/NaOH solution. A 5 ml syringe with a 21-gauge needle was used to aspirate the worm suspension back and forth several times. After 3 min it was observed the state of the worms using a dissecting stereoscope. At this stage, approximately 50% of worms should appear broken and many of the embryos should float in the solution. The embryos were immediately sedimented using centrifugation (1690×g for 2 min) and carefully removed the supernatant and add 10 ml of M9 buffer. This washing step was repeated three additional times. The supernatant was removed until 2 ml remains and rotated the tube for 16 h at RT. The hatched L larvae were collected by centrifugation (1690×g for 3 min) and put ˜80 L in each seeded NGM assay plate. Grow the L1 (Day 1) for 3 days until they become young adults (Day 3).

SMILES: NCCCCCCCCN [1,8-Diaminooctane]
- survival in PQ of treated worms, RNAi against dct-1 ([1]; compared to control worms that did not get the treatment, p<0.0001): significantly higher than control worms
- resistance to PQ after treatment, dct-1(tm376) mutants ([1]; compared to treated wild-type worms, 200 mM PQ, p<0.0001): significantly less resistant to PQ
- protective effect in PQ, RNAi against dct-1 ([1]; compared to worms treated with mock RNAi (empty vector)): significantly lesser
- speed (off food), day 11 post L1 (C. elegans): remained high and was similar to day 3
- speed (off food), day 11 post L1 (C. elegans; listed as 1,8-diaminooctane): no change in the speed
- survival of worms in paraquat ([2]; 0.0625, 0.25, 1 and 4 mM (all treatments), L1 to young adult (~48 h), vs distilled-water control, log-rank p<0.0001): increase the survival of worms significantly; also recorded: significantly increases the resistance to paraquat toxicity in a dose-dependent manner
- survival of worms in paraquat ([2]; compound at 4 mM, vs control worms): best protection
- survival of worms in paraquat ([2]; tested at 0.0625 mM and 0.25 mM, not split): significantly improved the survival of worms in PQ
